Data published in paper PMC8972196, “A Set of Experimentally Validated Decoys for the Human CC Chemokine Receptor 7 (CCR7) Obtained by Virtual Screening” (Frontiers in Pharmacology, 2022).
Where two headings read alike, the source gives them in different places.

Target: T1, human CCR7 (Homo sapiens, UniProt P32248)
T1 construct: expressed in transfected cells
T1 sequence (P32248 25-378): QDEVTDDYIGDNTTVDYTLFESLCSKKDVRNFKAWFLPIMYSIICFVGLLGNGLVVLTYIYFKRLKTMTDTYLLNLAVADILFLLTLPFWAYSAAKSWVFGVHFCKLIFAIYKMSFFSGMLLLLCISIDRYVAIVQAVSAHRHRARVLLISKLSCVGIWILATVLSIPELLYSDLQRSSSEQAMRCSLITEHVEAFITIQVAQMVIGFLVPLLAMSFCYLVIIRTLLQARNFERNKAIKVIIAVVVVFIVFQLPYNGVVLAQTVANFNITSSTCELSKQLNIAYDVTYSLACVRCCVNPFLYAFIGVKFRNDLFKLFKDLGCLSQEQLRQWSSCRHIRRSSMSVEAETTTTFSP
Test: CCL19-induced calcium mobilization assay, U87.CD4 cells expressing CCR7
Format: cell-based
Outline: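 U87.CD4 cells stably expressing human CCR7, CXCR2 or CCR5 were seeded at 20,000 cells/well and incubated overnight at 37°C and 5% CO2. Cells were then incubated for 45 min at room temperature in the dark before calcium responses were recorded. CCR7 responses were induced with CCL19 and CXCR2 responses with CXCL8.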

[1] = CCL19-induced calcium signaling, read-out: IC50 [μM] block CCL19 induced calcium signaling
[2] = classification of tested compounds as decoy or active
[3] = CCL19 induced calcium signaling, read-out: IC50 [μM] block CCL19 induced calcium signaling
[4] = classification as decoy or active on CCR7

Compound | IC50 [1] [µM] | Decoy – 0 Active – 1 [2] | IC50 [3] [µM] | Decoy – 0 Active – 1 [4] | IC50 [µM]
CN(C)CCNc1c(Nc2cc(C(F)(F)F)cc(C(F)(F)F)c2)c(=O)c1=O [C024, O=C1C(NCCN(C)C)=C(NC2=CC(C(F)(F)F)=CC(C(F)(F)F)=C2)C1=O] | > 50 | 0 |  |  | 
NC(=S)Nc1n[nH]c2ccccc12 [C049, S=C(NC1=NNC2=C1C=CC=C2)N] | > 30 | 0 |  |  | 
CCn1cccc(NC(=O)N2CC(Cc3ccccc3Br)C2)c1=O [C079, CCn1cccc(NC(=O)N2CC(Cc3ccccc3Br)C2)c1=O] | > 50 | 0 |  |  | 
CCN1CCCC1C1CCCN1C(=O)CCc1c[nH]c2ccccc12 (stereo not shown) [C282, CCN1CCCC1C1CCCN1C(=O)CCc1c[nH]c2ccccc12] |  |  | > 50 | 0 | 
CCC(NS(=O)(=O)c1ccc(C)cc1)c1ccccc1OCC(=O)NC (stereo not shown) [C249, CCC(c1ccccc1OCC(=O)NC)NS(=O)(=O)c2ccc(cc2)C] |  |  | > 50 | 0 | 
Cc1ccc(C(NC(=O)Nc2ccc(C(N)=O)c(Cl)c2)C(C)(C)C)o1 (stereo not shown) [C056, Cc1ccc(C(NC(=O)Nc2ccc(C(N)=O)c(Cl)c2)C(C)(C)C)o1] | > 10 | 0 |  |  | 
O=C(CN1CCCC1Cc1ccccc1Cl)NC1CCCCNC1=O (stereo not shown) [C284, O=C(CN1CCCC1Cc1ccccc1Cl)NC1CCCCNC1=O] |  |  | > 50 | 0 | 
CN(C)C(=O)c1cccc(NCC(=O)NCC2(c3ccccc3)CCC2)c1 [C052, CN(C)C(=O)c1cccc(NCC(=O)NCC2(c3ccccc3)CCC2)c1] | > 10 | 0 |  |  | 
CC(C)Cc1cc(C(=O)N(Cc2ccccc2Cl)C(C)C)nc(=O)[nH]1 [C142, CC(C)Cc1cc(C(=O)N(Cc2ccccc2Cl)C(C)C)nc(=O)[nH]1] | > 50 | 0 |  |  | 
C[C@H](Nc1c(N[C@H]2C[C@H]3CC[C@@]2(CN2CCCC2)C3(C)C)c(=O)c1=O)c1cccc2ccccc12 [C022, CC1(C)[C@@H]2CC[C@]1(CN3CCCC3)[C@@H](NC(C4=O)=C(N[C@H](C5=CC=CC6=C5C=CC=C6)C)C4=O)C2] | > 50 | 0 |  |  | 
CC[C@@H](NC(=O)CCn1ccccc1=O)c1cc(F)ccc1F [C132, CC[C@@H](NC(=O)CCn1ccccc1=O)c1cc(F)ccc1F] | > 50 | 0 |  |  | 
CCOC(=O)NC(=S)Nc1ccc2nsnc2c1 [C044, S=C(NC1=CC2=NSN=C2C=C1)NC(OCC)=O] | > 30 | 0 |  |  | 
O=C(Nc1ccc(Cl)cc1Cl)NC(Cc1ccc(O)cc1)C(=O)O (stereo not shown) [C184, O=C(Nc1ccc(Cl)cc1Cl)NC(Cc1ccc(O)cc1)C(=O)[O-]] |  |  | > 50 | 0 | 
CC(=O)c1cccc(NC(=O)NC(c2ccc(C)o2)C(C)(C)C)c1 (stereo not shown) [C062, CC(=O)c1cccc(NC(=O)NC(c2ccc(C)o2)C(C)(C)C)c1] | > 10 | 0 |  |  | 
CNC(=O)c1cccc(NC(=O)N[C@H](C)Cc2ccc(C)s2)c1C [C115, CNC(=O)c1cccc(NC(=O)N[C@H](C)Cc2ccc(C)s2)c1C] |  | 0 |  |  | > 50
COC(=O)c1ccccc1Nc1c(NCC2CC2)c(=O)c1=O [C016, COC(=O)c1ccccc1Nc1c(NCC2CC2)c(=O)c1=O] | > 50 | 0 |  |  | 
COc1ccc(CNc2c(NCc3ccc4c(c3)OCO4)c(=O)c2=O)cc1 [C012, COc1ccc(CNc2c(NCc3ccc4c(c3)OCO4)c(=O)c2=O)cc1] | > 50 | 0 |  |  | 
CCOC(=O)NC(=S)Nc1ccccn1 [C047, S=C(NC1=NC=CC=C1)NC(OCC)=O] | > 30 | 0 |  |  | 
O=C(CNc1c(N2CCN(c3ccc(Cl)cc3)CC2)c(=O)c1=O)NCc1ccco1 [C008, O=C(CNc1c(N2CCN(c3ccc(Cl)cc3)CC2)c(=O)c1=O)NCc1ccco1] | > 50 | 0 |  |  | 
Cc1noc(C)c1CNC(=O)COc1ccccc1CO [C172, Cc1noc(C)c1CNC(=O)COc1ccccc1CO] |  |  | > 50 | 0 | 
Cc1cnc([C@@H](C)CNC(=O)Nc2ccc3c(c2)S(=O)(=O)CC3)s1 [C113, Cc1cnc([C@@H](C)CNC(=O)Nc2ccc3c(c2)S(=O)(=O)CC3)s1] | > 50 | 0 |  |  | 

Compound | IC50 [1] [µM] | Decoy – 0 Active – 1 [2] | IC50 [3] [µM] | Decoy – 0 Active – 1 [4] | IC50 [µM]
CCN(CC)C(CNC(=O)c1ccc(C)[nH]c1=O)Cc1ccccc1 (stereo not shown) [C283, CCN(CC)C(CNC(=O)c1ccc(C)[nH]c1=O)Cc1ccccc1] |  |  |  | 0 | > 50
CC1(O)CN(C(=O)c2cc3c(Br)cccc3[nH]2)C1 [C175, CC1(O)CN(C(=O)c2cc3c(Br)cccc3[nH]2)C1] |  |  | > 50 | 0 | 
Cc1cccc2c(=O)n(CCC(=O)N[C@@H](c3ccccc3)C(C)C)cnc12 [C131, Cc1cccc2c(=O)n(CCC(=O)N[C@@H](c3ccccc3)C(C)C)cnc12] | > 50 | 0 |  |  | 
Cc1cc(NCC(=O)N(C)Cc2ccco2)ccc1C(=O)N(C)C [C060, Cc1cc(NCC(=O)N(C)Cc2ccco2)ccc1C(=O)N(C)C] | > 10 | 0 |  |  | 
O=C(NC1CCCCNC1=O)NC1CCSc2ccccc21 (stereo not shown) [C202, O=C(NC1CCCCNC1=O)NC1CCSc2ccccc21] |  |  | > 50 | 0 | 
Cc1c(C(=O)NC2CC2c2ccc(F)cc2F)[nH]c2c1C(=O)CCC2 (stereo not shown) [C205, Cc1c(C(=O)NC2CC2c2ccc(F)cc2F)[nH]c2c1C(=O)CCC2] |  |  | > 50 | 0 | 
CN(C)C(=O)c1ccc(CN2CCCC2c2cccc(Cl)c2)[nH]1 (stereo not shown) [C287, CN(C)C(=O)c1ccc(CN2CCCC2c2cccc(Cl)c2)[nH]1] |  |  | > 50 | 0 | 
O=C(CCC1(C(=O)O)CCC(=O)NC1)NCc1ccccc1 (stereo not shown) [C216, O=C(CCC1(C(=O)[O-])CCC(=O)NC1)NCc1ccccc1] |  |  | > 50 | 0 | 
COc1ccc(CNc2c(NC(C)c3ccccc3)c(=O)c2=O)cc1OC (stereo not shown) [C014, COc1ccc(CNc2c(NC(C)c3ccccc3)c(=O)c2=O)cc1OC] | > 50 | 0 |  |  | 
Cn1cc(C2CN(S(=O)(=O)c3ccc4c(c3)CCCC4)CC2CO)cn1 (stereo not shown) [C269, Cn1cc(cn1)C2CN(CC2CO)S(=O)(=O)c3ccc4c(c3)CCCC4] |  |  | > 50 | 0 | 
O=C(COc1ccccc1O)NCc1ccccc1Cl [C174, O=C(COc1ccccc1O)NCc1ccccc1Cl] |  |  | > 50 | 0 | 
COc1cccc(-c2cc(C(=O)NCc3ccco3)no2)c1 [C094, COc1cccc(-c2cc(C(=O)NCc3ccco3)no2)c1] | > 50 | 0 |  |  | 
CC(C)[C@@H](NC(=O)c1cccc(NC(=O)C2CC2)c1)c1ccccn1 [C155, CC(C)[C@@H](NC(=O)c1cccc(NC(=O)C2CC2)c1)c1ccccn1] | > 50 | 0 |  |  | 
COC(=O)c1ccccc1Nc1c(N2CCNC(=O)C2)c(=O)c1=O [C005, COC(=O)c1ccccc1Nc1c(N2CCNC(=O)C2)c(=O)c1=O] | > 50 | 0 |  |  | 
C[C@H](c1ccccc1)N(C)CC(=O)Nc1cccc(C(=O)N(C)C)c1 [C133, C[C@H](c1ccccc1)[N@@H+](C)CC(=O)Nc1cccc(C(=O)N(C)C)c1] | > 50 | 0 |  |  | 
O=C(NC1CC(C(=O)O)c2ccccc21)C1CCCN(C(=O)N2CCCC2)C1 (stereo not shown) [C197, O=C(NC1CC(C(=O)[O-])c2ccccc21)C1CCCN(C(=O)N2CCCC2)C1] |  |  | > 50 | 0 | 
Cc1cc(NCCc2nccs2)nc(-c2cccc([N+](=O)[O-])c2)n1 [C097, Cc1cc(NCCc2nccs2)nc(-c2cccc([N+](=O)[O-])c2)n1] | > 50 | 0 |  |  | 
CCCNC(=O)CNc1ccc(C)c(C(=O)N(C)C)c1 [C066, CCCNC(=O)CNc1ccc(C)c(C(=O)N(C)C)c1] | > 10 | 0 |  |  | 
CCNC(=O)c1ccc(CNS(=O)(=O)c2ccc3c(c2)CCC3)cc1 [C261, CCNC(=O)c1ccc(cc1)CNS(=O)(=O)c2ccc3c(c2)CCC3] |  |  | > 50 | 0 | 
C[C@@H](NC(=O)c1nnc(-c2ccc(S(=O)(=O)N(C)C)cc2)o1)c1ccccn1 [C092, C[C@@H](NC(=O)c1nnc(-c2ccc(S(=O)(=O)N(C)C)cc2)o1)c1ccccn1] | > 50 | 0 |  |  | 
